Reference: patent US6737383B1, “Herbicidal oxadiazolidines” (priority 1999, dated 2004)

Tests used:
cocklebur = experiment: Test B pre/postemergence cocklebur; format: in vivo, Xanthium strumarium
Procedure, shortened: (§1)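 Test chemicals in a non-phytotoxic solvent mixture with surfactant were sprayed preemergence onto planted seeds and postemergence onto plants 2 to 18 cm tall (1- to 4-leaf stage). After twelve to sixteen days in a greenhouse, injury was visually rated against untreated controls from 0 (no effect) to 10 (complete control).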

velvetleaf = experiment: Test B pre/postemergence velvetleaf; format: in vivo, Abutilon theophrasti; conditions: for Plant response rating, Velvetleaf: Rate 250 g/ha
Procedure, shortened: as §1

bamyardgrass = experiment: Test B flood test barnyardgrass; format: in vivo, Echinochloa crus-galli
Procedure, shortened: (§2)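 Read-out is a visual response score from 0 (no effect) to 10 (complete control), assigned by comparison with untreated controls. Treatment was applied at the 2-leaf stage, and plants stayed in the greenhouse for twelve to sixteen days before scoring.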

wheat = experiment: Test B pre/postemergence wheat; format: in vivo, Triticum aestivum; conditions: for Plant response rating, Wheat: Rate 250 g/ha
Procedure, shortened: as §1

duck salad = experiment: Test B flood test duck salad; format: in vivo, Heteranthera limosa
Procedure, shortened: as §2

morningglory = experiment: Test B pre/postemergence morningglory; format: in vivo, Ipomoea hederacea
Procedure, shortened: as §1

sugar beet = experiment: Test B pre/postemergence sugar beet; format: in vivo, Beta vulgaris; conditions: for Plant response rating, Sugarbeets: Rate 250 g/ha
Procedure, shortened: as §1

wild oat = experiment: Test B pre/postemergence wild oat; format: in vivo, Avena fatua; conditions: for Plant response rating, Wild oats: Rate 250 g/ha
Procedure, shortened: as §1

rice = experiment: Test B flood test rice; format: in vivo, Oryza sativa
Procedure, shortened: as §2

rape = experiment: Test B pre/postemergence rape; format: in vivo, Brassica napus
Procedure, shortened: as §1

soybean = experiment: Test B pre/postemergence soybean; format: in vivo, Glycine max
Procedure, shortened: as §1

crabgrass = experiment: Test B pre/postemergence crabgrass; format: in vivo, Digitaria sanguinalis
Procedure, shortened: as §1

pigweed = experiment: Test B pre/postemergence pigweed; format: in vivo, Amaranthus retroflexus
Procedure, shortened: as §1

giant foxtail = experiment: Test B pre/postemergence giant foxtail; format: in vivo, Setaria faberii
Procedure, shortened: as §1

purple nutsedge = experiment: Test B pre/postemergence purple nutsedge; format: in vivo, Cyperus rotundus
Procedure, shortened: as §1

corn = experiment: Test B pre/postemergence corn; format: in vivo, Zea mays
Procedure, shortened: as §1

[1] = Postemergence, Rate 62 g/ha, scale 0 to 10, 0 is no effect, 10 is complete control
[2] = Postemergence, Rate 125 g/ha, scale of 0 to 10 where 0 is no effect and 10 is complete control
[3] = Postemergence, Rate 250 g/ha, scale 0 to 10, 0 no effect, 10 complete control
[4] = Preemergence, Rate 31 g/ha, visual rating, scale 0 to 10 (0 no effect, 10 complete control)
[5] = Preemergence, Rate 62 g/ha, scale 0 to 10 (0 no effect, 10 complete control)
[6] = Preemergence, Rate 125 g/ha, scale 0 to 10 (0 no effect, 10 complete control)
[7] = Preemergence, Rate 250 g/ha, scale of 0 to 10 where 0 is no effect and 10 is complete control
[8] = Rate 31 g/ha, Postemergence, scale 0 to 10
[9] = Preemergence, Rate 125 g/ha, 0 is no effect, 10 is complete control
[10] = Preemergence, scale of 0 to 10 where 0 is no effect and 10 is complete control
[11] = Postemergence, scale 0 to 10, 0 is no effect, 10 is complete control
[12] = Rate 31 g/ha, Postemergence section (flood test species), scale 0 to 10
[13] = flood test, listed under Postemergence, Rate 250 g/ha, scale 0 to 10, 0 no effect, 10 complete control
[14] = Postemergence (flood test species), Rate 125 g/ha, scale of 0 to 10 where 0 is no effect and 10 is complete control
[15] = Rate 250 g/ha, Postemergence, scale 0 to 10, 0 is no effect, 10 is complete control

Q: Which results are given for `CC(C)N(C(=O)n1oc(=O)n(-c2cnn(C)c2)c1=O)c1ccc(F)cc1` [Compound 98]?
A: Cocklebur plant response rating (cocklebur; [1]): 0; Cocklebur plant response rating (cocklebur; [2]): 0; Cocklebur plant response rating (cocklebur; [3]): 0; Cocklebur plant response rating (cocklebur; [4]): 0; Cocklebur plant response rating (cocklebur; [5]): 0; Plant response rating, Cocklebur (cocklebur; [6]): 0; Plant response rating, Cocklebur (cocklebur; [7]): 0; Cocklebur plant response rating (cocklebur; [8]): 0; Velvetleaf plant response rating (velvetleaf; [1]): 0; Velvetleaf plant response rating (velvetleaf; [2]): 0; Velvetleaf plant response rating (velvetleaf; [4]): 0; Velvetleaf plant response rating (velvetleaf; [5]): 0; Velvetleaf plant response rating (0 to 10 scale) (velvetleaf; [9]): 0; Plant response rating, Velvetleaf (velvetleaf; [10]): 2; Plant response rating, Velvetleaf (velvetleaf; [11]): 0; Barnyardgrass plant response rating (bamyardgrass; [1]): 5; Barnyardgrass plant response rating (bamyardgrass; [12]): 3; Barnyardgrass plant response rating (bamyardgrass; Rate 125 g/ha, Postemergence section (flood test species), scale 0 to 10, 0 no effect, 10 complete control): 9; Barnyardgrass plant response rating (bamyardgrass; [13]): 9; Wheat plant response rating (wheat; [1]): 0; Wheat plant response rating (wheat; [2]): 0; Wheat plant response rating (wheat; [4]): 0; Wheat plant response rating (wheat; [5]): 0; Wheat plant response rating (0 to 10 scale) (wheat; [9]): 0; Plant response rating, Wheat (wheat; [10]): 1; Plant response rating, Wheat (wheat; [11]): 0; Ducksalad plant response rating (duck salad; [14]): 2; Ducksalad plant response rating (duck salad; [1]): 0; Ducksalad plant response rating (duck salad; [12]): 0; Ducksalad plant response rating (duck salad; [13]): 3; Morningglory plant response rating (morningglory; [1]): 0; Morningglory plant response rating (morningglory; [2]): 0; Morningglory plant response rating (morningglory; [3]): 2; Morningglory plant response rating (morningglory; [4]): 0; Morningglory plant response rating (morningglory; [5]): 0; Plant response rating, Morningglory (morningglory; [6]): 0; Plant response rating, Morningglory (morningglory; [7]): 0; Morningglory plant response rating (morningglory; [8]): 0; Sugarbeets plant response rating (sugar beet; [1]): 0; Sugarbeets plant response rating (sugar beet; [2]): 0; Sugarbeets plant response rating (sugar beet; [4]): 0; Sugarbeets plant response rating (sugar beet; [5]): 0; Sugarbeets plant response rating (0 to 10 scale) (sugar beet; [9]): 0; Plant response rating, Sugarbeets (sugar beet; [10]): 3; Plant response rating, Sugarbeets (sugar beet; [11]): 0; Wild oats plant response rating (wild oat; [1]): 0; Wild oats plant response rating (wild oat; [2]): 0; Wild oats plant response rating (wild oat; [4]): 0; Wild oats plant response rating (wild oat; [5]): 0; Wild oats plant response rating (0 to 10 scale) (wild oat; [9]): 0; Plant response rating, Wild oats (wild oat; [10]): 2; Plant response rating, Wild oats (wild oat; [11]): 0; Rice plant response rating (rice; [14]): 4; Rice plant response rating (rice; [1]): 0; Rice plant response rating (rice; [12]): 0; Plant response rating, Rice (rice; Rate 250 g/ha, Postemergence (flood test), scale 0 to 10, 0 is no effect, 10 is complete control): 6; Rape plant response rating (rape; [1]): 0; Rape plant response rating (rape; [2]): 0; Rape plant response rating (rape; [3]): 0; Rape plant response rating (rape; [4]): 0; Rape plant response rating (rape; [5]): 0; Plant response rating, Rape (rape; [6]): 0; Plant response rating, Rape (rape; [7]): 0; Rape plant response rating (rape; [8]): 0; Soybean plant response rating (soybean; [1]): 1; Soybean plant response rating (soybean; [2]): 1; Soybean plant response rating (soybean; [4]): 0; Soybean plant response rating (soybean; [5]): 0; Plant response rating, Soybean (soybean; [6]): 0; Plant response rating, Soybean (soybean; [7]): 0; Plant response rating, Soybean (soybean; [15]): 1; Crabgrass plant response rating (crabgrass; [1]): 0; Crabgrass plant response rating (crabgrass; [2]): 0; Crabgrass plant response rating (crabgrass; [3]): 2; Crabgrass plant response rating (crabgrass; [4]): 2; Crabgrass plant response rating (crabgrass; [5]): 4; Plant response rating, Crabgrass (crabgrass; [6]): 7; Plant response rating, Crabgrass (crabgrass; [7]): 8; Crabgrass plant response rating (crabgrass; [8]): 0; Redroot pigweed plant response rating (pigweed; [1]): 0; Redroot pigweed plant response rating (pigweed; [2]): 0; Redroot pigweed plant response rating (pigweed; [4]): 0; Redroot pigweed plant response rating (pigweed; [5]): 4; Plant response rating, Redroot pigweed (pigweed; [6]): 4; Plant response rating, Redroot pigweed (pigweed; [7]): 5; Redroot pigweed plant response rating (pigweed; [8]): 0; Plant response rating, Redroot pigweed (pigweed; [15]): 0; Giant foxtail plant response rating (giant foxtail; [1]): 0; Giant foxtail plant response rating (giant foxtail; [2]): 0; Giant foxtail plant response rating (giant foxtail; [3]): 2; Giant foxtail plant response rating (giant foxtail; [4]): 4; Giant foxtail plant response rating (giant foxtail; [5]): 5; Plant response rating, Giant foxtail (giant foxtail; [6]): 8; Plant response rating, Giant foxtail (giant foxtail; [7]): 10; Giant foxtail plant response rating (giant foxtail; [8]): 0; Nutsedge plant response rating (purple nutsedge; [1]): 0; Nutsedge plant response rating (purple nutsedge; [2]): 0; Nutsedge plant response rating (purple nutsedge; [3]): 0; Nutsedge plant response rating (purple nutsedge; [4]): 0; Nutsedge plant response rating (purple nutsedge; [5]): 0; Plant response rating, Nutsedge (purple nutsedge; [6]): 0; Plant response rating, Nutsedge (purple nutsedge; [7]): 0; Nutsedge plant response rating (purple nutsedge; [8]): 0; Corn plant response rating (corn; [1]): 0; Corn plant response rating (corn; [2]): 0; Corn plant response rating (corn; [3]): 0; Corn plant response rating (corn; [4]): 0; Corn plant response rating (corn; [5]): 0; Plant response rating, Corn (corn; [6]): 0; Plant response rating, Corn (corn; [7]): 0; Corn plant response rating (corn; [8]): 0
